Assay results published in article PMC5125695, “Antiviral Efficacy of Verdinexor In Vivo in Two Animal Models of Influenza A Virus Infection” (PLoS ONE, 2016).
Entries after “also recorded” stand apart in the source; their conditions may differ.

Test system: Influenza A/WSN/33
Format: cell-based

Structure (SMILES): O=C(/C=C\n1cnc(-c2cc(C(F)(F)F)cc(C(F)(F)F)c2)n1)NNc1ccccn1 [verdinexor]
- Sensitivity of passaged virus to verdinexor: did not result in a reduction of drug sensitivity; also recorded: remained sensitive
